Legend:
[1] = test system: Lewis Lung carcinoma (LLC) tumors; experiment: In vivo and ex vivo NIRF imaging with NIR-ASM in Lewis Lung carcinoma (LLC) lung cancer model; set-up: species or system C57BL/6 mice
From the text: Whether still in-situ or already disseminated, early diagnosis of cancer is an essential requirement for successful therapy. Although NQO1 is expressed at higher levels in cancers compared to a diminished or absent status in normal tissues, the diagnostic potential of existing NQO1 specific fluorescent probes has not been realized. Therefore, the inventors evaluated the non-invasive diagnostic ability of NIR-ASM in a metastatic syngeneic lung cancer model to mimic the clinical situation. Lung cancer was established in C57BL/6 mice by injecting Lewis Lung carcinoma (LLC) cells (0.5×10^6 per animal) intravenously. This cell line is highly tumorigenic and is primarily used to model metastasis as well as evaluate the efficacy of chemotherapeutic agents in vivo.^44 The LLC cells have ˜80 units of NQO1 activity compared to <10 units in healthy mouse lungs.^45 Two weeks after the implantation, the animals received NIR-ASM (5 mg/kg) intravenously. […] There are several routes for drug elimination from the body and the majority of drugs are eliminated by pathways that involve the kidneys.
In vivo bioimaging. The animal study protocol was approved by the Institutional Animal Use and Care Committee (IACUC), Texas Tech University Health Sciences Center, Protocol number: 07050. All experimental protocols used in this study were approved by IACUC, Texas Tech University Health Sciences Center and all the methods were carried out according to the committee guidelines. Female athymic nude mice (nu/nu, 4-6 weeks) were purchased from Charles River Laboratories (Wilmington, MA, USA). BALB/c57 mice were provided by Dr. Constantinos Mikelis of our University. To establish A549 or MDA-MB-231 xenografts, a total of 5×10^6 cells (in 0.1 ml of serum-free media and Matrigel (1:1)) were subcutaneously injected into the flanks of the mice. For developing orthotopic lung cancer models, LLC cells (0.5×10^6) were intravenously injected into the tail veins of female BALB/c57 mice. All animals were monitored for activity, physical condition, body weight, and tumor growth. To detect endogenous NQO1 activity, NIR-ASM was dissolved in a vehicle of composition, PEG-300:EtOH:saline (60:30:10, v/v/v) and given intravenously through tail vein injection. The animals were imaged at different time intervals with excitation/emission filters of 500/640 nm using the IVIS Lumina XR Imaging system. At the end of the experiments, the xenografted tumors, hearts, lungs, livers, kidneys, spleens, and brains were removed and imaged to confirm the signal locations. Fluorescence represented in log values of radiance is photons per second per square centimeter per steradian.

[2] = test system: A549 and NCI-H460 cancer cells, IMR 90 and HUVECs normal cells; experiment: Cytotoxicity of NIR-ASM, resazurin reduction assay; type: cell-based, human; details: up to 100 μM, 72 h
Experimental: Assessment of NIR-ASM biocompatibility. Inspired by the excellent photophysical properties of NIR-ASM in monitoring the NQO1 activity in vitro, the inventors determined the biocompatibility of NIR-ASM both in vitro and in vivo before using for endogenous applications. […] Further, to evaluate NIR-ASM tolerability and toxicity in vivo, CD1 mice were grouped for the administration of vehicle (PEG:H2O:EtOH) alone or 5 mg/kg of NIR-ASM five times a week for five weeks. The average mouse weights were monitored as a surrogate marker to the toxicity.
Cell viability assays. NIR-ASM was evaluated for in vitro cytotoxicity in human cancer (A549 and H460) and normal (IMR90 and HUVECs) cell lines following a protocol of 72 h continuous drug exposure using resazurin reduction assay. The cell lines were grown in 96-well microtiter plates at a density of 5000 cells per well. The plates were incubated for 24 h prior to addition of NIR-ASM. Ten concentrations of NIR-ASM were evaluated in quadruplicate sets. Plates were incubated for a further 72 h and replaced with 20 μL resazurin 0.01% (w/v) containing the medium. After 2 h, the fluorescence was measured using a Tecan Reader (Infinite m200 Pro) at a 544 nm excitation and 590 nm emission.

[3] = test system: A549, H460 cells; experiment: Fluorescence microscopy of NIR-ASM in NQO1 expressing cancer cells; type: cell-based, human
Experimental: Detection of NQO1 in live cells. Inspired by the excellent biocompatibility, the inventors investigated its performance in both NQO1 expressing cancer cells (A549, H460) and NQO1 non-expressing normal cells (IMR90, HUVEC). All cells were incubated with NIR-ASM (10 μM) for 60 min, washed with PBS and were imaged under a confocal microscope after counterstaining the nuclei with Hoechst 33342 (FIG. 12A). […] The higher expression of NQO1 protein in A549 and H460 cells and its absence in normal cells, IMR90 and HUVEC as found with western blot analysis correlated with the probe reactivity in cells (FIG. 12B). […] Cell sorting using flow cytometry is a well-established technology in clinical diagnostics and biomedical research. To assess the applicability of the NIR-ASM to rapidly detect and quantify in both cancer and normal cells based on NQO1 expression, the probe was incubated with cell suspensions for 60 min, and about 1×10^4 cells were analyzed on a flow cytometer.
Fluorescence imaging. Both cancer and normal cells were seeded into 6-well plates and cultured overnight in respective media at 37° C. Cells were treated with 10 μM NIR-ASM and incubated at 37° C. for 60 min. They were then treated with nuclear stain Hoechst 33342 for 5 min. Finally, the medium was replaced with PBS and the live cells were imaged using a multiphoton confocal fluorescence microscope (λex/em=488/644 nm). […]

[4] = test system: DAOY, T98G, and U87MG cells; experiment: Fluorescence microscopy of NQ-DCP in hNQO1 positive cancer cells; type: cell-based, human
Experimental: Visualization of Cancer Cells by Fluorescence Imaging of hNQO1. […] The cytotoxicity of NQ-DCP was initially evaluated in cultured brain tumor (DAOY, T98G, and U87MG) and normal (astrocytes) cells to assess its biocompatibility using the resazurin reduction assay. […] Cells were incubated with NQ-DCP (10 μM) for 60 min, washed with PBS and were imaged under a fluorescence microscope.
Cell Culture, Fluorescence Imaging, and Flow Cytometry Analysis. Brain tumor cells and astrocytes were grown in Dulbecco's modified Eagle's (DMEM) medium containing 10% Fetal Bovine Serum and 1% penicillin/streptomycin in a humidified atmosphere of 5% CO2 at 37° C. For fluorescence imaging, initially, cells were seeded into 6-well plate and cultured overnight in respective media at 37° C. Media was replaced with fresh medium containing 10 μM NQ-DCP and incubated at 37° C. for 60 min and then the medium was replaced with PBS and live cells were imaged using a fluorescence microscope. For inhibitor study, cells were pretreated with NQO1 inhibitor ES936 (100 nM) for 6 h before adding the NQ-DCP. For determining endogenous hNQO1 activity in cancer cells using flow cytometry, about 10×10^4 cells were incubated with 10 μM of NQ-DCP for 60 min and were analyzed using flow cytometry.

[5] = inferred from intracellular activation

| cell permeability [3, 5] | cell permeability [4, 5] | SMILES | time of maximum fluorescence intensity ([1]; 5 mg/kg intravenous) [min] | NIRF signal intensity of tumor-bearing lungs compared to other selected organs ([1]; 5 mg/kg intravenously, two weeks after implantation) | route of elimination ([1]; fluorescence observed in kidneys during ex vivo NIRF imaging) | fluorescence in the lungs of healthy mice ([1]; non-tumor-bearing mouse, intravenous NIR-ASM) | cytotoxicity [2] | fluorescence signal in NQO1 expressing cancer cells ([3]; 10 μM, 60 min) | fluorescence signal in cancer cells ([4]; 10 μM, 60 min) |
| --- | --- | --- | --- | --- | --- | --- | --- | --- | --- |
| confirm the cell permeability |  | CC1=C(C)C(=O)C(C(C)(C)CC(=O)Nc2ccc(/C=C/C3=CC(=C(C#N)C#N)CC(C)(C)C3)cc2)=C(C)C1=O [NIR-ASM, (E)-N-(4-(2-(3-(dicyanomethylene)-5,5-dimethylcyclohex-1-en-1-yl)vinyl)phenyl)-3-methyl-3-(2,4,5-trimethyl-3,6-dioxocyclohexa-1,4-dien-1-yl)butanamide] | 30 | more than 100 fold | renal excretion might play an important role | no fluorescence observed | not toxic | bright NIR fluorescence signal |  |
|  | good cell permeability | CC1=C(C)C(=O)C(C(C)(C)CC(=O)Oc2ccc(/C=C/C3=CC(=C(C#N)C#N)CC(C)(C)C3)cc2)=C(C)C1=O [NQ-DCP] |  |  |  |  |  |  | bright fluorescence signals |

— US11957766B2, “HNQO1-activatable fluorescent probe for imaging cancer cells in-vitro and in-vivo” (Texas Tech University System, priority 2019, dated 2024)
